Test results from patent US8168651B2, “Protein kinase modulators” (Cylene Pharmaceuticals, Inc., priority 2008, dated 2012).
Like-named read-outs stand apart in the source and are kept apart here.

Key:
[1] = test system: HCT-116 human colorectal carcinoma cells; assay: Cell-proliferation assay using Alamar Blue dye; assay type: cell-based; conditions: Homo sapiens;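 further: cells exposed to compound for about 4 days, then Alamar Blue added and dye fluorescence read after about 4 h, compared with medium-only control wells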
recombinant human PIM1 = recombinant human PIM1 (Homo sapiens (Human), UniProt P11309); assay: PIM-1 kinase activity in cell-free in vitro assay; assay type: biochemical; conditions: for inhibition at 0.5 µM: 500 nM compound, read-out: PIM-1: % inh 500 nM
K-562 [2] = assay: Cell proliferation modulatory activity, K-562; assay type: cell-based; conditions: Homo sapiens, K562
MV-4-11 [3] = assay: Cell proliferation modulatory activity, MV-4-11; assay type: cell-based; conditions: Homo sapiens, MV4-11
recombinant human CK2 = recombinant human CK2 (Homo sapiens (Human), UniProt P68400); assay: CK2 assay (cell-free, 33P-ATP filter plate); assay type: biochemical; conditions: cell-free; for inhibition at 0.5 µM: 500 nM compound, read-out: CK2: % inh 500 nM
Flt3 = Flt3 (Homo sapiens (Human), UniProt P36888); assay: FLT-3 kinase activity in cell free in vitro assay; assay type: biochemical; conditions: cell-free; read-out: FLT-3
[4] = test system: MiaPaca human pancreatic carcinoma cells; assay: Cell-proliferation assay using Alamar Blue dye; assay type: cell-based; conditions: MIA PaCa-2, Table 45
Procedure: A representative cell-proliferation assay protocol using Alamar Blue dye (stored at 4° C., use 20 ul per well) is described hereafter.
• a. Split and trypsinize cells. • b. Count cells using hemocytometer. • c. Plate 4,000-5,000 cells per well in 100 μl of medium and seed into a 96-well plate according to the following plate layout. Add cell culture medium only to wells B10 to B12. Wells B1 to B9 have cells but no compound added.
• d. Add 100 μl of 2× drug dilution to each well in a concentration shown in the plate layout above. At the same time, add 100 μl of media into the control wells (wells B10 to B12). Total volume is 200 μl/well. • e. Incubate four (4) days at 37° C., 5% CO2 in a humidified incubator. • f. Add 20 μl Alamar Blue reagent to each well. • g. Incubate for four (4) hours at 37° C., 5% CO2 in a humidified incubator. • h. Record fluorescence at an excitation wavelength of 544 nm and emission wavelength of 590 nm using a microplate reader.
In the assays, cells are cultured with a test compound for approximately four days, the dye then is added to the cells and fluorescence of […] dye is detected after approximately four hours. Different types of cells can be utilized in the assays (e.g., HCT-116 human colorectal carcinoma cells, PC-3 human prostatic cancer cells and MiaPaca human pancreatic carcinoma cells). Anti-proliferative effects of representative compounds are provided hereafter

K-562 [5] = assay: Cell proliferation modulatory activity, K-562; assay type: cell-based; conditions: Homo sapiens, K562; Table 45; read-out: K-562 IC50
MV-4-11 [6] = assay: Cell proliferation modulatory activity, MV-4-11; assay type: cell-based; conditions: Homo sapiens, MV4-11; Table 45; read-out: MV-4-11 IC50
PIM2 = PIM2 (Homo sapiens (Human), UniProt Q9P1W9); assay: PIM2 IC50; assay type: biochemical; conditions: Table 45
phosphoBAD ser 112 = phosphoBAD ser 112 IC50; assay type: cell-based; conditions: read-out: phosphoBAD ser 112 IC50; Table 45
MDAMB231 = MDAMB231 IC50; assay type: cell-based; conditions: Homo sapiens, MDA-MB-231; Table 45
[7] = HCT-116, read-out: HCT-116 (uM), cell proliferation modulatory activity, HCT-116, first column
[8] = HCT-116, HCT-116, second column, read-out: HCT-116 (uM), cell proliferation modulatory activity
[9] = HCT-116, read-out: HCT-116 (uM), cell proliferation modulatory activity, HCT-116, second column

Sequence of Flt3 (P36888 27-993): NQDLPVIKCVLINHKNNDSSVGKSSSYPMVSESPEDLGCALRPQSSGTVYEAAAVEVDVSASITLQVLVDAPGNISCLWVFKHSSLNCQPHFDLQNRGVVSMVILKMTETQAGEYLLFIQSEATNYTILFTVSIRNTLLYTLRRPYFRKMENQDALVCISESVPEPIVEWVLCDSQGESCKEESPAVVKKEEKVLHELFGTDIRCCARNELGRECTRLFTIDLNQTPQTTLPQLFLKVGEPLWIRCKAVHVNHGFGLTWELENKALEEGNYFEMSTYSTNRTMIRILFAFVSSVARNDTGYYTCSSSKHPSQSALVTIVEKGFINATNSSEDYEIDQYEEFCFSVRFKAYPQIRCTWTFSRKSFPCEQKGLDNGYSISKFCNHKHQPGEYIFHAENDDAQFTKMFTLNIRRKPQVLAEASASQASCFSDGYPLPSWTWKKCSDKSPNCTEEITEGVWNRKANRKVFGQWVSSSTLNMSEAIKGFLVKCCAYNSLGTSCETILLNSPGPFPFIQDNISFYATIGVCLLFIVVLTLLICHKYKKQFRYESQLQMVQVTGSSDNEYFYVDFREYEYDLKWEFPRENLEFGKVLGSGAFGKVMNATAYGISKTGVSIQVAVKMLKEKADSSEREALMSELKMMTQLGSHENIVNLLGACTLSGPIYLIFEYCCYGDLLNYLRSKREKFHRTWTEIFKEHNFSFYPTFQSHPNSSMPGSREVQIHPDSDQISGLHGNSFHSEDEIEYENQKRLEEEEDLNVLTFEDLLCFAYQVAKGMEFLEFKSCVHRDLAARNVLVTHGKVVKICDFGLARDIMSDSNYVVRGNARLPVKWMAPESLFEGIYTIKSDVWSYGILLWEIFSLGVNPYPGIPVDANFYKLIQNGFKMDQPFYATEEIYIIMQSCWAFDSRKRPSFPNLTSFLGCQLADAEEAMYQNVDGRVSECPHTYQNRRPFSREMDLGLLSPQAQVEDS
Sequence of PIM2 (Q9P1W9 whole entry): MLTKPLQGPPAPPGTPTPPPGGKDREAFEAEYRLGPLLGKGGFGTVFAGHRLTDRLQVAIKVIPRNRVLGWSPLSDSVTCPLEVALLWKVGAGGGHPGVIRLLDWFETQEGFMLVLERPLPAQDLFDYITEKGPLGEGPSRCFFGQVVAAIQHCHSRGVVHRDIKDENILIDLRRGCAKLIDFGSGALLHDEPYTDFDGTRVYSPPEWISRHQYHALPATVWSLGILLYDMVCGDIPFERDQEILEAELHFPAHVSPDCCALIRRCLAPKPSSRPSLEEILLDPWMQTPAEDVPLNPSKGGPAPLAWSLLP
Sequence of recombinant human CK2 (P68400 whole entry): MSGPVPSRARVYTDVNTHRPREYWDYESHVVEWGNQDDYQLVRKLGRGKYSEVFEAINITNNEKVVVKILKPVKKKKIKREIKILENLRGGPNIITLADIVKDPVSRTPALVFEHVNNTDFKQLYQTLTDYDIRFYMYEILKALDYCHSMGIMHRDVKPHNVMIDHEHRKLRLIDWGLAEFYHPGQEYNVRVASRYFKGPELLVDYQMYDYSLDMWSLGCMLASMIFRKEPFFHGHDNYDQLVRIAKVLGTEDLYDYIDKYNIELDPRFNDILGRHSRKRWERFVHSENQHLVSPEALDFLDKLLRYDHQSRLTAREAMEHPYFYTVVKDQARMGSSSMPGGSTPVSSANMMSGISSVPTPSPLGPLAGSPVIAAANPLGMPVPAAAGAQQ
Sequence of recombinant human CK2 (P67870 whole entry partner): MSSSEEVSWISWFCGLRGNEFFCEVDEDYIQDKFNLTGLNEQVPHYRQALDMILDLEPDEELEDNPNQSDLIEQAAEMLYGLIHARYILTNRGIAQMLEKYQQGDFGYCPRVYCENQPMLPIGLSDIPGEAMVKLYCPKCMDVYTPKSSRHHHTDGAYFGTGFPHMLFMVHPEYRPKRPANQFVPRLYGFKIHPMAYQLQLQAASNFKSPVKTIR
Sequence of recombinant human PIM1 (P11309 whole entry): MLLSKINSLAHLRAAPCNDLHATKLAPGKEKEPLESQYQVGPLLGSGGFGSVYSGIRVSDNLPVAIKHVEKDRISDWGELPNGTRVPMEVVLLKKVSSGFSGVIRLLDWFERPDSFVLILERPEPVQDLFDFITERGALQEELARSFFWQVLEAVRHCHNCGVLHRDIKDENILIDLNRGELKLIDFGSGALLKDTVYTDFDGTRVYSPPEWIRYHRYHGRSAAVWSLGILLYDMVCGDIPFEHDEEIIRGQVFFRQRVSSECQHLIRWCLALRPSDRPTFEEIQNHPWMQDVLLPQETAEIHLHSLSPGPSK

inhibition at 0.5 µM (recombinant human PIM1; cell-free) [%]	IC50 (recombinant human PIM1; cell-free) [nM]	IC50 (K-562 [2]) [µM]	IC50 (MV-4-11 [3]) [µM]	IC50 [4] [µM]	IC50 (recombinant human PIM1; Table 45) [nM]	IC50 (K-562 [5]) [µM]	IC50 (MV-4-11 [6]) [nM]	IC50 (PIM2) [nM]	IC50 (phosphoBAD ser 112) [nM]	IC50 (MDAMB231) [µM]	other results	SMILES
61.4	404	> 10	> 10	–	–	–	–	–	–	–	IC50 [1, 7]: 10 µM	CN(c1ccccc1)c1nc2cc(C(=O)O)ccc2c2sccc12
80.8	257	> 10	0.455	–	–	–	–	–	–	–	IC50 [1, 7]: 10 µM	O=C(O)c1ccc2c(c1)nc(Nc1ccc(F)c(Cl)c1)c1ccsc12
69.1	289	> 10	0.258	–	–	–	–	–	–	–	IC50 [1, 7]: 10 µM	O=C(O)c1ccc2c(c1)nc(Nc1ccc(Cl)cc1)c1ccsc12
59	205	> 10	0.093	–	–	–	–	–	–	–	IC50 (recombinant human CK2; 15 um ATP, read-out: CK2 (15 um ATP) IC50): 458 nM; IC50 (recombinant human CK2; 20 um ATP, read-out: CK2 (20 um ATP) IC50): 406 nM; IC50 [1, 8]: > 10 µM; IC50 (Flt3): > 400 nM	FC(F)(F)c1cccc(Nc2nc3cc(-c4nnn[nH]4)ccc3c3sccc23)c1
83.9	88	> 10	> 10	–	–	–	–	–	–	–	IC50 [1, 9]: 10 µM	NS(=O)(=O)c1cccc(Nc2nc3cc(-c4nnn[nH]4)ccc3c3sccc23)c1
65.9	220	> 10	0.549	–	–	–	–	–	–	–	IC50 [1, 9]: > 10 µM	Brc1cccc(Nc2nc3cc(-c4nnn[nH]4)ccc3c3sccc23)c1
76.6	138	> 10	0.525	–	–	–	–	–	–	–	IC50 (Flt3): > 400 nM	Fc1cccc(Nc2nc3cc(-c4nnn[nH]4)ccc3c3sccc23)c1
69.2	283	> 10	> 10	–	–	–	–	–	–	–	inhibition at 0.5 µM (recombinant human CK2): 53.3%; IC50 [1, 8]: > 10 µM	CN(C)CCNC(=O)Cc1cccc(Nc2nc3cc(C(=O)O)ccc3c3sccc23)c1
82.8	159	> 10	> 10	–	–	–	–	–	–	–	IC50 [1, 9]: > 10 µM	CNS(=O)(=O)c1cccc(Nc2nc3cc(C(=O)O)ccc3c3sccc23)c1
74.7	197	> 10	> 10	–	–	–	–	–	–	–	IC50 [1, 9]: > 10 µM	O=C(O)c1ccc2c(c1)nc(Nc1cccc(C(F)(F)F)c1)c1ccsc12
85.7	239	> 10	0.658	–	–	–	–	–	–	–	IC50 [1, 9]: 0.832 µM	O=C(O)c1ccc2c(c1)nc(Nc1ccc(F)c(F)c1)c1ccsc12
48.6	863	8.2	0.032	–	–	–	–	–	–	–	IC50 (Flt3): 305 nM	Clc1cccc(Nc2nc3cc(-c4nnn[nH]4)ccc3c3cnccc23)c1
90	299	> 10	0.745	–	–	–	–	–	–	–	IC50 [1, 9]: > 10 µM	O=C(O)c1ccc2c(c1)nc(Nc1cc(F)cc(Cl)c1)c1ccsc12
92.4	111	3.26	> 10	–	–	–	–	–	–	–	IC50 [1, 9]: 4.33 µM	O=C(O)c1ccc2c(c1)nc(Nc1cc(F)cc(F)c1)c1ccncc12
87	252	> 10	1.46	–	–	–	–	–	–	–	IC50 [1, 9]: > 10 µM	N#Cc1cc(F)cc(Nc2nc3cc(C(=O)O)ccc3c3sccc23)c1
92.4	58	9.15	> 10	–	–	–	–	–	–	–	IC50 (Flt3): 12 nM	N#Cc1cccc(Nc2nc3cc(C(=O)O)ccc3c3cnccc23)c1
86.9	414	> 10	2.2	–	–	–	–	–	–	–	IC50 [1, 9]: > 10 µM	Fc1cc(F)cc(Nc2nc3cc(-c4nnn[nH]4)ccc3c3sccc23)c1
7.83	–	0.217	0.161	–	–	–	–	–	–	–	inhibition at 0.5 µM (recombinant human CK2): 13.4%; IC50 (Flt3): > 400 nM	COC(=O)c1ccc2c(c1)nc(Nc1cccc(Cl)c1)c1ccncc12
–	–	–	–	> 10	< 100	< 0.5	< 500	< 100	< 500	–	–	Fc1ccc(Nc2nc3c(-c4nnc[nH]4)cccc3c3cnccc23)c(Cl)c1

inhibition at 0.5 µM (recombinant human PIM1; cell-free) [%]	IC50 (recombinant human PIM1; cell-free) [nM]	IC50 (K-562 [2]) [µM]	IC50 (MV-4-11 [3]) [µM]	IC50 [4] [µM]	IC50 (recombinant human PIM1; Table 45) [nM]	IC50 (K-562 [5]) [µM]	IC50 (MV-4-11 [6]) [nM]	IC50 (PIM2) [nM]	IC50 (phosphoBAD ser 112) [nM]	IC50 (MDAMB231) [µM]	other results	SMILES
–	–	–	–	< 5	< 100	< 0.5	< 100	< 100	< 100	> 10	–	Cc1cc(F)ccc1Nc1nc2c(-c3nnc[nH]3)cccc2c2cnccc12
–	–	–	–	< 0.5	< 100	< 0.5	< 100	< 100	< 100	–	–	COc1ccc(Nc2nc3c(-c4nc[nH]n4)cccc3c3cnccc23)cc1
–	–	–	–	< 1	–	< 1	–	–	–	> 10	–	Cc1ccccc1Nc1nc2c(-c3nnc[nH]3)cccc2c2cnccc12
–	–	–	–	< 1	< 100	< 0.5	< 100	< 100	< 5000	–	–	Fc1ccccc1Nc1nc2c(-c3nnc[nH]3)cccc2c2cnccc12
–	–	–	–	–	–	> 10	–	< 100	–	> 10	–	Cc1ccc(F)cc1Nc1nc2c(-c3nnc[nH]3)cccc2c2cnccc12
–	–	–	–	–	< 100	< 5	< 100	< 1000	< 100	< 5	–	COc1ccccc1Nc1nc2c(-c3nnc[nH]3)cccc2c2cnccc12
–	–	–	–	> 10	< 100	> 10	> 10000	< 500	–	> 10	–	Clc1cccc(Nc2nc3c(-c4nc[nH]n4)cccc3c3ccncc23)c1
–	–	–	–	> 10	< 100	> 10	< 100	> 1100	< 5000	–	–	N#Cc1cccc(Nc2nc3c(-c4nc[nH]n4)cccc3c3cnccc23)c1
–	–	–	–	–	< 100	< 5	< 100	< 1000	< 5000	> 10	–	CN(c1ccccc1Cl)c1nc2c(-c3nnc[nH]3)cccc2c2cnccc12
–	–	–	–	< 10	< 100	> 10	< 100	< 500	< 100	–	–	c1cc(-c2nc[nH]n2)c2nc(NCC3CC3)c3ccncc3c2c1
–	–	–	–	< 1	< 100	–	< 500	–	< 500	–	–	Fc1cccc(Nc2nc3c(-c4nnc[nH]4)cccc3c3cnccc23)c1
–	–	–	–	< 5	< 100	< 0.5	< 1000	< 5000	–	> 10	–	CN(c1ccc(Cl)cc1)c1nc2c(-c3nc[nH]n3)cccc2c2cnccc12
–	–	–	–	< 5	< 500	< 5	< 500	> 1100	< 1000	–	–	FC(F)(F)c1cccc(Nc2nc3c(-c4nnc[nH]4)cccc3c3cnccc23)c1
–	–	–	–	< 1	< 500	< 1	< 120	–	< 100	< 1	–	NC(=O)c1cccc2c1nc(Nc1cccc(F)c1)c1ccncc12
–	–	–	–	> 10	< 500	> 10	> 10000	–	–	> 10	–	NC(=O)c1cccc2c1nc(Nc1cccc(Cl)c1)c1cnccc12
–	–	–	–	> 10	< 500	> 10	< 100	–	< 100	> 10	–	COCCOc1cccc(Nc2nc3c(-c4nnc[nH]4)cccc3c3cnccc23)c1
–	–	–	–	< 0.5	–	< 5	–	< 100	–	< 0.5	–	Clc1ccccc1Nc1nc2c(-c3nnc[nH]3)cccc2c2cnccc12 [drawing 2209]
–	–	–	–	< 1	< 100	< 0.5	< 100	–	< 5000	< 10	–	NC(=O)c1cccc2c1nc(Nc1cccc(Cl)c1)c1ccncc12 [drawing 2246]
